Read-outs that look alike come from different tables or passages of the source.
Experiments:
Test in all cases: biochemical
Design in all cases: Eurofins KinaseProfiler full panel at Km ATP, residual kinase activity (%) relative to DMSO
[1] = target: T1, CHK2(I157T)(h) (Homo sapiens, UniProt O96017, I157T)
T1 construct: gene CHEK2
Outline: (§1)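 Compounds screened at 10 µM in radiometric kinase activity assays at Km ATP, reported as remaining kinase activity (%). A KINOMEscan competition-binding screen at 10 µM measured DNA-tagged kinase retained on immobilized active-site ligand by qPCR.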

[2] = target: T2, IKKε(h) (Homo sapiens, UniProt Q14164)
T2 construct: gene IKBKE
T2 sequence (Q14164 1-716): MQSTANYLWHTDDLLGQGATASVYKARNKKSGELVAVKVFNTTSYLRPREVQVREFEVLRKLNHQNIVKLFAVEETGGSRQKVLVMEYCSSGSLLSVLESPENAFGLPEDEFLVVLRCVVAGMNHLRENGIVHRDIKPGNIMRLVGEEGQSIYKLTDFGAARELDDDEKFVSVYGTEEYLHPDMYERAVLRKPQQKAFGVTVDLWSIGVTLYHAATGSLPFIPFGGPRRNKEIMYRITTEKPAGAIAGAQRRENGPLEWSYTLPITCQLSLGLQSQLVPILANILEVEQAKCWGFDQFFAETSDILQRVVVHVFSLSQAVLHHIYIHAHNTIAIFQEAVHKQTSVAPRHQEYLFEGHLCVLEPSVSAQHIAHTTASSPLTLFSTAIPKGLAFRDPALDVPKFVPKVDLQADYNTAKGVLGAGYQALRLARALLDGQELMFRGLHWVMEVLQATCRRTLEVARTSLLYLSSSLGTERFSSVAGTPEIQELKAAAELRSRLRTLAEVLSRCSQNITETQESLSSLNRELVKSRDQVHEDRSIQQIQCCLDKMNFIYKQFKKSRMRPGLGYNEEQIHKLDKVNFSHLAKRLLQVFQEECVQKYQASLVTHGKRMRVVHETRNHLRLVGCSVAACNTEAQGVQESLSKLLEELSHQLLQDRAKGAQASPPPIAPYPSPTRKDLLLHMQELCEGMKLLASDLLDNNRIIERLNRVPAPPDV
Outline: as §1

[3] = target: TAF1L(h) (Homo sapiens, UniProt Q8IZX4)
Chain of TAF1L(h) (Q8IZX4 whole entry): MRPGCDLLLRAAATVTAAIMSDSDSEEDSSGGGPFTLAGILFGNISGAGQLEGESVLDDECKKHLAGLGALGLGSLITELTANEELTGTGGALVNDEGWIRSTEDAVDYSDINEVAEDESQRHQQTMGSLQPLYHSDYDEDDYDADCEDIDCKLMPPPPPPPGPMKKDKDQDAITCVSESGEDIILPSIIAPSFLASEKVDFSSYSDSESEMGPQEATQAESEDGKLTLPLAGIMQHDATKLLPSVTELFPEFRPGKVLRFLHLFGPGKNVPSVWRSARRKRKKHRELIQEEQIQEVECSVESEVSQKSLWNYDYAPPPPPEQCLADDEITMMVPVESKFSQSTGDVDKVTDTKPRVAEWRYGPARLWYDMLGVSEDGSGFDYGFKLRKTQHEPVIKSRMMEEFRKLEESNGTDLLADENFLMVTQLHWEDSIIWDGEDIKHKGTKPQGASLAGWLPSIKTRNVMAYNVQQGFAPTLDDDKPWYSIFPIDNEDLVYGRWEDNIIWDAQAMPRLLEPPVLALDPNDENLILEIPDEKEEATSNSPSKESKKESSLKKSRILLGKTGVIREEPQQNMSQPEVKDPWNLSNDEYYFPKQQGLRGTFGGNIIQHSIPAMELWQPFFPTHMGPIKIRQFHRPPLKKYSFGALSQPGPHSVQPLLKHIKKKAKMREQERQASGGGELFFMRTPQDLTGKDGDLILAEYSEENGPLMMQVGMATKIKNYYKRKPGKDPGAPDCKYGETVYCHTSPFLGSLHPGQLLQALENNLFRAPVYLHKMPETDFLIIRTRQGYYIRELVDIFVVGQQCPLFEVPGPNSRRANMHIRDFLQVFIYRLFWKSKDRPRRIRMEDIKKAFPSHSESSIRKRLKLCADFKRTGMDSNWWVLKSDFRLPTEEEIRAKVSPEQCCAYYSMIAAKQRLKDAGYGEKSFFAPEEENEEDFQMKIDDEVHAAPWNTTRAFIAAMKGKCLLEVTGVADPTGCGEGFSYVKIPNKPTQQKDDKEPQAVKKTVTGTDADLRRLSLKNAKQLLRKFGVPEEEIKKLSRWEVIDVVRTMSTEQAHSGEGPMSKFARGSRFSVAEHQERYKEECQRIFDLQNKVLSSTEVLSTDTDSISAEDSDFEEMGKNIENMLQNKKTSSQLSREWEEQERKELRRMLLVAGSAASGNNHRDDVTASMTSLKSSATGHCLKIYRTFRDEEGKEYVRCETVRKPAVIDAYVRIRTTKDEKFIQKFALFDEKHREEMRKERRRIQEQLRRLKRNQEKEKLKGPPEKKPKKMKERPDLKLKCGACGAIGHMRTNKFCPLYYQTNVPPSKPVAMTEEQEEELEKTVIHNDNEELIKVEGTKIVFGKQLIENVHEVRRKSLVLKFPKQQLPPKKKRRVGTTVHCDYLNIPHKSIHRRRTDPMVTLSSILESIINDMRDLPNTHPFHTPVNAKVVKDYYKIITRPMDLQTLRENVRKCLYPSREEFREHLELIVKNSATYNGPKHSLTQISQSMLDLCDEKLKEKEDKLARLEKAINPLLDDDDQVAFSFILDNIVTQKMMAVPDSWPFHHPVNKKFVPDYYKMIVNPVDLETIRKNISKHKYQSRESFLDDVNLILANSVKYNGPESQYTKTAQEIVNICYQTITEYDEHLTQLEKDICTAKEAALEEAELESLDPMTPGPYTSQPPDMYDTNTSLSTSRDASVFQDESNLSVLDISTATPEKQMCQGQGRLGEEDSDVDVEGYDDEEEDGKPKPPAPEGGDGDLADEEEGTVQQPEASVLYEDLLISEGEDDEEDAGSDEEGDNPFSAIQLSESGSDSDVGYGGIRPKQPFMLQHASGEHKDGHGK
Outline: as §1

[4] = target: Met(h) (Homo sapiens, UniProt P08581)
Chain of Met(h) (P08581 whole entry): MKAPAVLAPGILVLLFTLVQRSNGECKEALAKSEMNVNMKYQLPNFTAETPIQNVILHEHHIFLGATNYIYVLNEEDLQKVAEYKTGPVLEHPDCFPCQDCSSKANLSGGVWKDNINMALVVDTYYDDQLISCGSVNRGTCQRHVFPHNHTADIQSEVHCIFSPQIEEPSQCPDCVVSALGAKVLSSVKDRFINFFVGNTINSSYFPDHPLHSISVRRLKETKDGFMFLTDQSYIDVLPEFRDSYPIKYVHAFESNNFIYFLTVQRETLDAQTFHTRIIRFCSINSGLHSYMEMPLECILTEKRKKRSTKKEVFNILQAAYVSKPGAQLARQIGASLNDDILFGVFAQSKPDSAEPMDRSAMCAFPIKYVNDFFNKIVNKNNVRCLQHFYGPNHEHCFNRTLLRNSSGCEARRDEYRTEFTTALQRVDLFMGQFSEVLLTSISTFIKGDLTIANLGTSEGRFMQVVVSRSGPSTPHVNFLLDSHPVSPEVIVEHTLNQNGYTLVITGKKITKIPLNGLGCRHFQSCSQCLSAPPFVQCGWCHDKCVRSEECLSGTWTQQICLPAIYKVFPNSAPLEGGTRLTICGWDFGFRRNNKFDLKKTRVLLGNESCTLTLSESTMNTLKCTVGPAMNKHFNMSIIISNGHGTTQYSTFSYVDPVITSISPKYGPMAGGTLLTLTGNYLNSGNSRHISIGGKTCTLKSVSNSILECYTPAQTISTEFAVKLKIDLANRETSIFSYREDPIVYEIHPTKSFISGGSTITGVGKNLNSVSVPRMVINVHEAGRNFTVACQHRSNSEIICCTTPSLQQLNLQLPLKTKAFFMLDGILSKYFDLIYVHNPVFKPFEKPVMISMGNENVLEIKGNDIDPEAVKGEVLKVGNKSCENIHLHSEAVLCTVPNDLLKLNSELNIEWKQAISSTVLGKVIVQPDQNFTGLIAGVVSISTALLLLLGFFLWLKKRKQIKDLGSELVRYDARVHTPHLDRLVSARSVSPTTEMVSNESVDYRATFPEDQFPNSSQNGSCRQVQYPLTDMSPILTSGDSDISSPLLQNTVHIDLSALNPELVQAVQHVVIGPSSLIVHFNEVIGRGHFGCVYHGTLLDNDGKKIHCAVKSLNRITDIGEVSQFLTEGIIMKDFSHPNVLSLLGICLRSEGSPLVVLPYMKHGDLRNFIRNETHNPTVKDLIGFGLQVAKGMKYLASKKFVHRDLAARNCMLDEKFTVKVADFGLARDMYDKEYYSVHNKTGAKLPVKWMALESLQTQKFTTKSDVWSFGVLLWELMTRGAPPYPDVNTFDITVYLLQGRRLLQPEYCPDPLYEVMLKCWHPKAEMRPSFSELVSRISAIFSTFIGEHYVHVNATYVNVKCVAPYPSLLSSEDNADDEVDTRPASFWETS
Outline: as §1

[5] = target: T3, Pim-3(h) (Homo sapiens, UniProt Q86V86)
T3 construct: gene PIM3
Outline: as §1

[6] = target: T4, EphB3(h) (Homo sapiens, UniProt P54753)
T4 sequence (P54753 1-998): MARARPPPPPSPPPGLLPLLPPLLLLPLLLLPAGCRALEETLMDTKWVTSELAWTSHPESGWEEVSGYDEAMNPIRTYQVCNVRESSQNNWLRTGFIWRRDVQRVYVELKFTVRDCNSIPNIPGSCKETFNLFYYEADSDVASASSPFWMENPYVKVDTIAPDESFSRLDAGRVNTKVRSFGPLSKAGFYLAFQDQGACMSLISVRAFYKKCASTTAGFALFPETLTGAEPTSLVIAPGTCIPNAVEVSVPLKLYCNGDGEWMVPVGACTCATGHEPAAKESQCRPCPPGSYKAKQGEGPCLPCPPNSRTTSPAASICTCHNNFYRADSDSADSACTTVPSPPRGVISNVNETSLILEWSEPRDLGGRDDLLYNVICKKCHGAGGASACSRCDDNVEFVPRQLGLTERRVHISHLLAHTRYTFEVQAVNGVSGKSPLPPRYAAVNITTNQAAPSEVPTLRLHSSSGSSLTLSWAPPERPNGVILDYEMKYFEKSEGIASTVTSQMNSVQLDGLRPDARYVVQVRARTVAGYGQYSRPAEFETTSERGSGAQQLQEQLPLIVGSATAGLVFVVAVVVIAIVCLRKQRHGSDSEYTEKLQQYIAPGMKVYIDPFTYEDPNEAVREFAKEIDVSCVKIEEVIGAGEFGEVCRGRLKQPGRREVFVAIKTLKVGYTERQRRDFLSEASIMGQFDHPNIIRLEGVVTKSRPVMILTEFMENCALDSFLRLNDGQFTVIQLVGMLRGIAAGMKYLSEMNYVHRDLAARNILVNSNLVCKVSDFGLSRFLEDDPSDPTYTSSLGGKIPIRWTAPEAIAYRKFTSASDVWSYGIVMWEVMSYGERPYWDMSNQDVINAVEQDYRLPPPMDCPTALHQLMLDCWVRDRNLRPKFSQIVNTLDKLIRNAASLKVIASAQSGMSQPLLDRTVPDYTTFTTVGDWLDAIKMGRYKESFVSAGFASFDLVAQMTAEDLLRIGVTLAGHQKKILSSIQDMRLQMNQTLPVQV
Outline: as §1

[7] = read-out: Residual activity (%) 5ay
[8] = read-out: Residual activity (%) Spautin-1 5aa
[9] = read-out: Residual activity (%) 5at
[10] = read-out: Residual activity (%) 5as

T1 sequence (O96017 whole entry I157T): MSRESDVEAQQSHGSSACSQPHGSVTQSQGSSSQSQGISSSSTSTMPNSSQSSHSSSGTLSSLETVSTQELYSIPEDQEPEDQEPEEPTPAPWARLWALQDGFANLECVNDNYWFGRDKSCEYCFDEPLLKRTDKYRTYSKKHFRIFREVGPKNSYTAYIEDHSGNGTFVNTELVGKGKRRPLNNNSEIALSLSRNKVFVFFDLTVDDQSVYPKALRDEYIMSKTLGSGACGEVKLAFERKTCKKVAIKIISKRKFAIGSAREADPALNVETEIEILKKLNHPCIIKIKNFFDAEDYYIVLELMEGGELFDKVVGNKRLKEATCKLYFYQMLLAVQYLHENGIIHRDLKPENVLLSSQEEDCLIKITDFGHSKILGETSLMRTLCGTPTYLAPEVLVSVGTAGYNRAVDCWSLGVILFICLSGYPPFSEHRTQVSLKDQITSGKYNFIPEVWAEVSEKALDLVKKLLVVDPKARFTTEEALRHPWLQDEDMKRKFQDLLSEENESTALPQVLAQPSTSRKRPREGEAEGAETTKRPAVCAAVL

For COc1ccc2ncnc(Nc3cccc(F)c3)c2c1 [5ay, N-(3-Fluorophenyl)-6-Methoxy-4-Quinazolinamine], which remaining activity at 10 µM [1, 7] is on record?
Its remaining activity at 10 µM is 91%.

And the remaining activity at 10 µM [2, 7]?
The remaining activity at 10 µM was 67%.

What about the remaining activity at 10 µM [3, 7] of the same compound?
The remaining activity at 10 µM was 32%.

What about the remaining activity at 10 µM [4, 7] of the same compound?
The remaining activity at 10 µM was 72%.

And the remaining activity at 10 µM [5, 7]?
Its remaining activity at 10 µM is 96%.

What about the remaining activity at 10 µM [6, 7] of the same compound?
Its remaining activity at 10 µM is 84%.

What does the source list for Fc1ccc(CNc2ncnc3ccc(F)cc23)cc1 [5aa, 6-Fluoro-N-(4-fluorobenzyl)-4-Quinazolinamine]?
remaining activity at 10 µM [1, 8]: 88%; remaining activity at 10 µM [2, 8]: 64%; remaining activity at 10 µM [3, 8]: 80%; remaining activity at 10 µM [4, 8]: 82%; remaining activity at 10 µM [5, 8]: 123%; remaining activity at 10 µM [6, 8]: 93%

For Fc1ccc2ncnc(NCCc3ccc(Cl)cc3)c2c1 [5at, N-[2-(4-Chlorophenyl)Ethyl]-6-Fluoro-4-Quinazolinamine], which remaining activity at 10 µM [1, 9] is on record?
The remaining activity at 10 µM was 99%.

What about the remaining activity at 10 µM [2, 9] of the same compound?
The remaining activity at 10 µM was 79%.

And the remaining activity at 10 µM [3, 9]?
The remaining activity at 10 µM was 70%.

And the remaining activity at 10 µM [4, 9]?
The remaining activity at 10 µM was 112%.

What about the remaining activity at 10 µM [5, 9] of the same compound?
Its remaining activity at 10 µM is 97%.

And the remaining activity at 10 µM [6, 9]?
The remaining activity at 10 µM was 76%.

Which remaining activity at 10 µM [1, 10] does the source give for Fc1ccc(CCNc2ncnc3ccc(F)cc23)cc1 [5as, 6-Fluoro-N-[2-(4-Fluorophenyl)Ethyl]-4-Quinazolinamine] here?
Its remaining activity at 10 µM is 105%.

What about the remaining activity at 10 µM [2, 10] of the same compound?
Its remaining activity at 10 µM is 72%.

What about the remaining activity at 10 µM [3, 10] of the same compound?
The remaining activity at 10 µM was 66%.

And the remaining activity at 10 µM [4, 10]?
The remaining activity at 10 µM was 57%.

And the remaining activity at 10 µM [5, 10]?
Its remaining activity at 10 µM is 92%.

What about the remaining activity at 10 µM [6, 10] of the same compound?
Its remaining activity at 10 µM is 79%.

— publication PMC7827406, “Structure–Activity Relationship (SAR) Study of Spautin-1 to Entail the Discovery of Novel NEK4 Inhibitors” (International Journal of Molecular Sciences, 2021)
